From US6806230B1, “Pyrimidine derivatives and herbicides containing them” (Kumiai Chemical Industry Co., Ltd., priority 1999, dated 2004)

Legend:
Assay type in all cases: in vivo
monochoria (Mo) [1] = test: Test Example 1: herbicidal effects by flooded paddy field treatment; design: herbicidal effects, Mo (monochoria):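 0-5 growth inhibition grade; 5 = over 90%; 4 = 70-90%; 3 = 50-70%; 2 = 30-50%; 1 = 10-30%; 0 = under 10%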; details: dose 100 g active ingredient per 10 ares, examined on the 21st day after treatment, standards of Table 44
Procedure, shortened: (§1)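 Dose: 100 g active ingredient per 10 ares as a diluted wettable powder dripped onto 3 cm floodwater, one day after sowing in puddled paddy soil. Scored by a standard rating scale 21 days later following greenhouse growth.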

barnyard grass (Eo) [2] = test: as above; design: herbicidal effects, Eo (barnyard grass):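 0-5 growth inhibition grade; 5 = over 90%; 4 = 70-90%; 3 = 50-70%; 2 = 30-50%; 1 = 10-30%; 0 = under 10%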; details: dose 100 g active ingredient per 10 ares, examined on the 21st day after treatment, standards of Table 44
Procedure, shortened: as §1

barnyard grass (Ec) = test: Test Example 2: herbicidal effects by upland soil treatment; design: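 0-5 growth inhibition grade; 5 = over 90%; 4 = 70-90%; 3 = 50-70%; 2 = 30-50%; 1 = 10-30%; 0 = under 10%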; details: dose 100 g active ingredient per 10 ares, examined on the 21st day after treatment
Procedure, shortened: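 Pre-emergence test: barnyard grass and green foxtail sown in upland soil, then soil surface sprayed with wettable-powder formulation at 100 g active ingredient per 10 ares (100 l per 10 ares). Grown in greenhouse; herbicidal effect scored on a rating scale 21 days after treatment.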

rice (Or) = test: Test Example 4: selectivity for a crop plant by flooded paddy field treatment; design: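 0-5 phytotoxicity grade; 5 = over 90%; 4 = 70-90%; 3 = 50-70%; 2 = 30-50%; 1 = 10-30%; 0 = under 10%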; details: rice transplanted at second leaf stage, dose 25 gai/10a, 21st day after treatment, index per Table 44
Description: (§2) In a 100 cm^2 plastic pot, a paddy field soil was filled and paddled. Then, seeds of barnyard grass (Eo) and monochoria (Mo) were sown, and rice (Or) of second leaf stage was transplanted, and water was introduced to a depth of 3 cm. Next day, a wettable powder prepared in accordance with Formulation Example 1 was diluted with water and dropwise applied to the water surface. The dose was 25 g of the active ingredient per 10 ares. Thereafter, cultivation was carried out in a green house, and on the 21st day after the treatment, the herbicidal effects were examined in accordance with the standards of Table 44.

monochoria (Mo) [3] = test: as above; design: scale not given here; details: monochoria, dose 25 gai/10a, 21st day after treatment, index per Table 44
Description: as §2

barnyard grass (Eo) [4] = test: as above; design: scale not given here; details: barnyard grass, dose 25 gai/10a, 21st day after treatment, index per Table 44
Description: as §2

Row | SMILES | herbicidal effects, Mo (monochoria) (monochoria (Mo) [1]) | herbicidal effects, Eo (barnyard grass) (barnyard grass (Eo) [2]) | Ec (herbicidal effects, index) (barnyard grass (Ec)) | Or (herbicidal effect index on crop) (rice (Or)) | Mo (herbicidal effect index) (monochoria (Mo) [3]) | Eo (herbicidal effect index) (barnyard grass (Eo) [4])
1 | CCc1ncncc1C(N(C)C(=O)Cc1ccc(C)cc1)C(C)(C)C (racemic) [1-567] | 5 | 5 | 5 | 1 | 5 | 5
2 | CCC(c1cncnc1C(C)(C)C)N(C)C(=O)Cc1ccc(C)cc1 (racemic) [1-573] | 5 | 5 | 5 | 1 | 5 | 5
3 | COC1(C(c2cncnc2C(C)C)N(C)C(=O)Cc2ccc(C)cc2)OCCO1 (racemic) [1-604] | 5 | 5 | 5 | 1 | 5 | 5
4 | C#CCN(C(=O)Cc1ccc(Cl)cc1)C(CCC)c1cncnc1CC (racemic) [1-608] | 5 | 5 | 5 | 1 | 5 | 5
5 | C#CCN(C(=O)Cc1ccc(F)c(F)c1)C(c1cncnc1C(F)(F)F)C(C)C (racemic) [1-614] | 5 | 5 | 5 | 1 | 5 | 5
6 | C#CCN(C(=O)Cc1ccc(C)cc1)C(c1cncnc1C(C)C)C(C)C (racemic) [1-624] | 5 | 5 | 5 | 1 | 5 | 5
7 | C#CCN(C(=O)Cc1ccccc1)C(c1cncnc1CC)C(C)(C)C (racemic) [1-626] | 5 | 5 | 5 | 1 | 5 | 5
8 | C#CCN(C(=O)Cc1ccc(F)cc1)C(c1cncnc1CC)C(C)(C)C (racemic) [1-627] | 5 | 5 | 5 | 1 | 5 | 5
9 | CC(C)C(c1cncnc1C(F)(F)Cl)N(C)C(=O)OCc1ccccc1 (racemic) [1-639] | 5 | 5 | 5 | 1 | 4 | 5
10 | CC(C)C(c1cncnc1C(F)(F)F)N(C)C(=O)Cc1ccc2ccccc2c1 (racemic) [2-1] | 5 | 5 | 5 | 0 | 5 | 5
11 | CC(C)C(c1cncnc1C(F)(F)F)N(C)C(=O)Cc1ccsc1 (racemic) [2-2] | 5 | 5 | 5 | 1 | 5 | 5
12 | CCN(C(=O)Cc1cccs1)C(c1cncnc1C(F)F)C(C)C (racemic) [2-7] | 5 | 5 | 5 | 1 | 5 | 5
13 | CCN(C(=O)Cc1ccsc1)C(c1cncnc1C(F)F)C(C)C (racemic) [2-8] | 5 | 5 | 5 | 0 | 5 | 5
14 | CN(C(=O)Cc1cccs1)C(c1ccccc1)c1cncnc1C(F)(F)F (racemic) [2-19] | 5 | 5 | 5 | 1 | 5 | 5
15 | CN(C(=O)Cc1ccsc1)C(c1ccccc1)c1cncnc1C(F)(F)F (racemic) [2-20] | 5 | 5 | 5 | 1 | 5 | 5
16 | CN(C(=O)Cc1ccc(Cl)s1)C(c1ccccc1)c1cncnc1C(F)(F)F (racemic) [2-31] | 5 | 5 | 5 | 0 | 5 | 5
17 | Cc1ccc(CC(=O)N(C)C(c2ccccc2)c2cncnc2C(F)(F)F)s1 (racemic) [2-32] | 5 | 5 | 5 | 1 | 5 | 5
18 | CN(C(=O)Cc1cccs1)C(c1cncnc1C(F)(F)F)C1(C)CC1 (racemic) [2-55] | 5 | 5 | 5 | 1 | 5 | 5
19 | CN(C(=O)Cc1ccsc1)C(c1cncnc1C(F)(F)F)C1(C)CC1 (racemic) [2-56] | 5 | 5 | 5 | 1 | 5 | 5
20 | CN(C(=O)Cc1ccc(Cl)s1)C(c1cncnc1C(F)(F)F)C1(C)CC1 (racemic) [2-58] | 5 | 5 | 5 | 1 | 5 | 5
21 | C#CCN(C(=O)Cc1ccc(Cl)s1)C(c1cncnc1CC)C(C)C (racemic) [2-73] | 5 | 5 | 5 | 1 | 5 | 5
22 | C#CCN(C(=O)Cc1ccsc1)C(c1cncnc1C(F)(F)F)C(C)C (racemic) [2-78] | 5 | 5 | 5 | 1 | 5 | 5
